# Structures can show the parent of a compound that is named as a salt.
# Target: T1, recombinant, human protein tyrosine phosphatase (PTP) 1B (hPTP1B) (Homo sapiens, UniProt P18031)
# T1 construct: made in house
# T1 sequence (P18031 1-435): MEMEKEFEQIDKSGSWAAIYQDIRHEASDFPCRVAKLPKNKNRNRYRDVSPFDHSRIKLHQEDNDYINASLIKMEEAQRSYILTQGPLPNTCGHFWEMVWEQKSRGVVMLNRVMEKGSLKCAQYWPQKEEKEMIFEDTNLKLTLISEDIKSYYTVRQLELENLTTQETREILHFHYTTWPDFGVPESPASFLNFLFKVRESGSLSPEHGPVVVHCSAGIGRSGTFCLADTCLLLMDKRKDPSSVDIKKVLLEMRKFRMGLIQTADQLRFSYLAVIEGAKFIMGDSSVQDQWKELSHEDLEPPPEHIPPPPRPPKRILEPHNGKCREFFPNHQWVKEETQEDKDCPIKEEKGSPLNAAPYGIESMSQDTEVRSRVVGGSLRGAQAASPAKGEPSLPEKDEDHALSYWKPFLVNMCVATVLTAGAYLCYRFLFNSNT
# Assay: Inhibition of tri-phosphorylated insulin receptor dodecaphosphopeptide dephosphorylation by hPTP1B
# Type: biochemical
# Details: 50 μM IR triphosphopeptide substrate, 5 min preincubation and 5 min reaction at 37° C., malachite green-ammonium molybdate phosphate detection
row,IC50,Structure (SMILES)
1,63 nM,"CCCCCCCCCCCCNC(=O)c1cc(-c2cccc(Cl)c2)c(OCC(=O)O)c(-c2cccc(Cl)c2)c1 [Example 1, (3,3″-Dichloro-5′-dodecylcarbamoyl-[1,1′;3′,1″]terphenyl-2′-yloxy)-acetic acid]"
2,183 nM,"CCCCCCCCCCCCNC(=O)c1cc(Br)c(OCC(=O)O)c(-c2cccc(Cl)c2)c1 [Example 2, (3-Bromo-3′-chloro-5-dodecylcarbamoyl-biphenyl-2-yloxy)acetic acid]"
3,111 nM,"O=C(O)COc1c(-c2cccc(Cl)c2)cc(C(=O)NCCCCCCCCc2ccccc2)cc1-c1cccc(Cl)c1 [Example 3, [3,3″-Dichloro-5′-(8-phenyl-octylcarbamoyl)-[1,1′;3′,1″]terphenyl-2′-yloxy]-acetic acid]"
4,15 nM,CCCCCCCCCCCCNC(=O)c1cc(-c2cccc(Cl)c2)c(OCCOCC(=O)O)c(-c2cccc(Cl)c2)c1 [Example 12]
5,44 nM,"CCCCCCCCCCCCNC(=O)c1cc(-c2ccc(F)c(Cl)c2)c(OCC(=O)O)c(-c2ccc(F)c(Cl)c2)c1 [Example 24, (3,3″-Dichloro-5′-dodecylcarbamoyl-4,4″-difluoro[1,1′;3′,1″]terphenyl(-2′-yloxy)-acetic acid sodium salt]"
6,123 nM,"O=C(O)COc1c(-c2ccc(F)c(Cl)c2)cc(C(=O)NCCCCCCCCc2ccccc2)cc1-c1ccc(F)c(Cl)c1 [Example 25, [3,3″-Dichloro-4-4″difluoro-5′-(8-phenyl-octylcarbamoyl)[-1,1′;3′,1″]terphenyl-2′-yloxy]-acetic acid]"
7,203 nM,"CCCCCCCCCCCCNC(=O)c1cc(Br)c(OCC(=O)O)c(-c2ccc(OC)cc2)c1 [Example 31, (3-Bromo-5-dodecylcarbamoyl-4′-methoxy-biphenyl-2-yloxy)-acetic acid]"
8,254 nM,"CCCCCCCCOc1cc(-c2cccc(OC)c2)c(OCC(=O)O)c(-c2cccc(OC)c2)c1 [Example 50, (3,3″-Dimethoxy-5′-octyloxy-[1,1′;3′,1″]terphenyl-2′-yloxy)acetic acid]"
9,450 nM,"O=C(O)COc1c(-c2cccc(C(F)(F)F)c2)cc(C(=O)NCCCCCCCCc2ccccc2)cc1-c1ccccc1F [Example 108, [2″-Fluoro-5′-(8-phenyl-octylcarbamoyl)-3-trifluoromethyl-[1,1′;3′,1″]terphenyl-2′-yloxy)-acetic acid]"
10,187 nM,"CCCCCCCCCCCCNC(=O)c1cc(-c2cccc(C(F)(F)F)c2)c(OCC(=O)O)c(-c2ccccc2F)c1 [Example 109, (5′-Dodecylcarbamoyl-2″-fluoro-3-trifluoromethyl-[1,1′;3′,1″]terphenyl-2′-yloxy)-acetic acid]"
11,300 nM,"CCCCCCCCCCCCNC(=O)c1cc(-c2ccccc2F)c(OCC(=O)O)c(-c2ccccc2F)c1 [Example 110, (5′-Dodecylcarbamoyl-2,2″-difluoro-[1,1′;3′,1″]terphenyl-2′-yloxy)-acetic acid]"
12,700 nM,"O=C(O)COc1c(-c2ccccc2F)cc(C(=O)NCCCCCCCCc2ccccc2)cc1-c1ccccc1F [Example 111, [2,2″-Difluoro-5′-(8-phenyl-octylcarbamoyl)-[1,1′;3′,1″]terphenyl-2′-yloxy)-acetic acid]"
13,55 nM,"CCCCCCCCCCCCNC(=O)c1cc(-c2cccc(Cl)c2)c(OCC(=O)O)c(-c2ccccc2F)c1 [Example 114, (3″-Chloro-5′-dodecylcarbamoyl-2-fluoro-[1,1′;3′,1″]terphenyl-2′-yloxy)-acetic acid]"
14,287 nM,"O=C(O)COc1c(-c2cccc(Cl)c2)cc(C(=O)NCCCCCCCCc2ccccc2)cc1-c1ccccc1F [Example 115, [3″-Chloro-2-fluoro-5′-(8-phenyl-octylcarbamoyl)-[1,1′;3′,1″]terphenyl-2′-yloxy]-acetic acid]"
15,423 nM,"CN(CCCCCCCCc1ccccc1)C(=O)c1cc(-c2ccccc2F)c(OCC(=O)O)c(-c2ccccc2F)c1 [Example 118, {2,2″-Difluoro-5′-[methyl-(8-phenyl-octyl)-carbamoyl]-[1,1′;3′,1″]terphenyl-2′-yloxy}-acetic acid]"
16,627 nM,"O=C(O)COc1c(-c2cccc(Cl)c2)cc(C(=O)NCCCCCCCC[S+]([O-])c2ccc(Cl)cc2)cc1-c1cccc(Cl)c1 (stereo not drawn) [Example 119, {3,3″-Dichloro-5′-[8-(4-chloro-benzenesulfinyl)-octylcarbamoyl]-[1,1′;3′,1″]terphenyl-2′-yloxy}-acetic acid]"
17,53 nM,"O=C(O)COc1c(-c2cccc(Cl)c2)cc(C(=O)NCCCCCCCCOc2ccc(F)cc2F)cc1-c1cccc(Cl)c1 [Example 120, {3,3″-Dichloro-5′-[8-(2,4-difluoro-phenoxy)-octylcarbamoyl]-[1,1′;3′,1″]terphenyl-2′-yloxy}-acetic acid]"

row,IC50,Structure (SMILES)
1,15 nM,"O=C(O)COc1c(-c2cccc(Cl)c2)cc(C(=O)NCCCCCCCCCCCCOc2ccc(F)cc2F)cc1-c1cccc(Cl)c1 [Example 121, {3,3″-Dichloro-5′-[12-(2,4-difluoro-phenoxy)-dodecylcarbamoyl]-[1,1′;3′,1″]terphenyl-2′-yloxy}-acetic acid]"
2,92 nM,"O=C(O)COc1c(-c2cccc(Cl)c2)cc(C(=O)NCCCCCCCCOCc2ccc(C(F)(F)F)cc2)cc1-c1cccc(Cl)c1 [Example 122, {3,3″-Dichloro-5′-[8-(4-trifluoromethyl-benzyloxy)-octylcarbamoyl]-[1,1′;3′,1″]terphenyl-2′-yloxy}-acetic acid]"
3,595 nM,"O=C(O)COc1c(-c2cccc(Cl)c2)cc(C(=O)N(C2CCCCC2)C2CCCCC2)cc1-c1cccc(Cl)c1 [Example 124, (3,3″-Dichloro-5′-dicyclohexylcarbamoyl-[1,1′;3′,1″]terphenyl-2′-yloxy)-acetic acid]"
4,264 nM,"O=C(NCCCCCCCc1ccccc1)c1cc(-c2cccc(C(F)(F)F)c2)c(OCP(=O)(O)O)c(-c2cccc(C(F)(F)F)c2)c1 [Example 128, [5′-(7-Phenyl-heptylcarbamoyl)-3,3″-bis-trifluoromethyl-[1,1′:3′,1″]terphenyl-2′-yloxymethyl]-phosphonic acid]"
5,56 nM,"O=C(NCCCCCCCc1ccccc1)c1cc(-c2cccc(C(F)(F)F)c2)c(OCc2ccc(S(=O)(=O)O)cc2)c(-c2cccc(C(F)(F)F)c2)c1 [Example 130, 4-[5′-(7-Phenyl-heptylcarbamoyl)-3,3″-bis-trifluoromethyl-[1,1′3′,1″]terphenyl-2′-yloxymethyl]-benzenesulfonic acid]"
6,102 nM,COc1ccc(-c2cc(-c3ccc(C(=O)NCCCCCCCc4ccccc4)cc3)cc(-c3ccc(OC)cc3)c2OCc2ccc(C(=O)O)cc2)cc1 [Example 133]
7,57 nM,"O=C(O)c1ccc(COc2c(-c3cccc(C(F)(F)F)c3)cc(C(=O)NCCCCCCCc3ccccc3)cc2-c2cccc(C(F)(F)F)c2)cc1 [Example 134, 4-[5′-(7-Phenyl-heptylcarbamoyl)-3,3″-bis-trifluoromethyl-[1,1′:3′,1″]terphenyl-2′-yloxymethyl]-benzoic acid]"
8,130 nM,"CCCCCCCCCCCCNC(=O)c1cc(Br)c(OCC(=O)O)c(-c2ccc(F)c(Cl)c2)c1 [Example 135, (3-Bromo-3′-chloro-5-dodecylcarbamoyl-4′-fluoro-biphenyl-2-yloxy)acetic acid]"
9,455 nM,"O=C(O)COc1ccc(C(=O)NCCCCCCCCc2ccccc2)cc1-c1ccc(F)c(Cl)c1 [Example 136, [3′-Chloro-4′-fluoro-5-(8-phenyl-octylcarbamoyl)-biphenyl-2-yloxy]acetic acid]"
10,71 nM,"Cc1cc(C)cc(-c2cc(C(=O)NCCCCCCCCc3ccccc3)cc(-c3cc(C)cc(C)c3)c2OCC(=O)O)c1 [Example 141, [3,5,3″,5″-Tetramethyl-5′-(8-phenyl-octylcarbamoyl)-[1,1′:3′,1″]terphenyl-2′-yloxy]acetic acid]"
11,258 nM,"Cc1cccc(-c2cc(C(=O)NCCCCCCCc3ccccc3)cc(-c3cccc(C)c3)c2OCCCC(=O)O)c1 [Example 146, 4-[3,3″-Dimethyl-5′-(7-phenyl-heptylcarbamoyl)-[1,1′:3′,1″]terphenyl-2′-yloxy]-butyric acid]"
12,405 nM,"COCOc1c(-c2cccc(C=O)c2)cc(C(=O)NCCCCCCCc2ccccc2)cc1-c1cccc(C=O)c1 [Example 149, 3,3″-Diformyl-2′-methoxymethoxy-[1,1′:3′,1″]terphenyl-5′-carboxylic acid (7-phenyl-heptyl)-amide]"
13,396 nM,"O=C(NCCCCCCCCc1ccccc1)c1cc(Br)c(O)c(-c2cccc(C(=O)OCCCCCl)c2)c1 [Example 152, 3′-Bromo-2′-hydroxy-5′-(8-phenyl-octylcarbamoyl)-biphenyl-3-carboxylic acid 4-chloro-butyl ester]"
14,98 nM,"CCCCCCCCCCCCNC(=O)c1cc(-c2cccc(Cl)c2)c(OCC(=O)O)c(-c2cccc(C(F)(F)F)c2)c1 [Example 153, (3″-Chloro-5′-dodecylcarbamoyl-3-trifluoromethyl-[1,1′;3′,1″]terphenyl-2′-yloxy)acetic acid]"
15,129 nM,"CCCCCCCCCCCCNC(=O)c1cc(-c2ccc(OC)cc2)c(OCC(=O)O)c(-c2cccc(C(F)(F)F)c2)c1 [Example 154, (5′-Dodecylcarbamoyl-4″-methoxy-3-trifluoromethyl-[1,1′;3′1″]terphenyl-2′-yloxy)acetic acid]"
16,139 nM,"CCCCCCCCCCCCNC(=O)c1cc(-c2ccc(OC)cc2)c(OCC(=O)O)c(-c2ccccc2F)c1 [Example 155, (5′-Dodecylcarbamoyl-2″-fluoro-4-methoxy-[1,1′;3′,1″]terphenyl-2′-′yloxy)acetic acid]"
